# Experimental data reported in US11058690B2, “Use of cytochrome bc1 complex inhibitor in preparing pharmaceutical composition” (BEIJING WEILANZHIYUAN MEDICAL TECHNOLOGY CO., LTD., priority 2017, dated 2021).
# Key:
# [1] = system: Mouse mononuclear macrophage RAW 264.7; assay: nitric oxide production by LPS-stimulated macrophages (Griess assay); type: cell-based; details: LPS 1 μg/mL, 24 h
# [2] = system: rat uterine smooth muscle; assay: contraction of rat uterine smooth muscle induced by oxytocin; type: cell-based; details: oxytocin (1 mU/ml)
# Method: (§1) Female healthy Wistar rats weighing 230-270 g were used in the experiment. At 2 days before the experiment, Diethylstilbestrol suspension was injected intraperitoneally once at 0.1 mg/kg, resulting in artificial estrus. The rats were sacrificed by cervical dislocation, and the uterus was removed by laparotomy and immediately placed in a glass plate containing Tyrode's solution. […] The materials stood for 20-30 minutes, liquid was changed 2-3 times, then the uterus was given a load of 1 g and kept for 30-60 minutes until the uterus had regular contraction waves, 40 mM KCL solution was provided for 10 minutes, and the function of the uterine muscle strips was evaluated. Then the muscle strips were relaxed and washed 2-3 times with Tyrode's solution, then let stand for 30 minutes; after standing, the uterine muscle strips were given a load of 1 g and kept for 30-60 minutes, and the administration and the observation were carried out after the uterine muscle strips contracted stably (i.e. regular contraction waveforms appear in a microcomputer display screen), the changes of relevant data such as contraction tension, amplitude and area under the contraction curve of the uterine smooth muscle strips were recorded, and the drug given was evaluated. […]
# [3] = system: SD rats; assay: carrageenan-induced rat paw swelling test; type: in vivo
# Method: Eighteen healthy adult male mice were randomly divided into 3 groups. FAPM (100 mg/kg) was administered intraperitoneally once a day for 3 consecutive days. The control group was injected with the same amount of solvent, and the positive drug dexamethasone (4 mg/kg) was administered intragastrically once a day for 3 consecutive days. Thirty minutes after the last administration, 0.1 mL of 1% carrageenan was injected subcutaneously into the right hind paw of each rat, and the plantar thickness was measured before injection and 1, 2 and 3 hours after injection. Three hours later, the rats were sacrificed by dislocation. The feet were cut off from the knee joints and weighed on a precision balance. The swelling degree of the paw (right foot weight-left foot weight) was calculated.
# [4] = system: rat uterine smooth muscle; assay: contraction of isolated rat uterine smooth muscle strips induced by PGF2α; type: cell-based; details: PGF2α (450 nM); for IC50: area under the contraction curve 10 minutes after drug, read-out: IC50, inhibition of uterine smooth muscle contraction
# Method: Female healthy Wistar rats weighing 230-270 g were used in the experiment. At 2 days before the experiment, Diethylstilbestrol suspension was injected intraperitoneally once at 0.1 mg/kg, resulting in artificial estrus. The rats were sacrificed by cervical dislocation, and the uterus was removed by laparotomy and immediately placed in a glass plate containing Tyrode's solution. Connective and adipose tissues attached to the uterine wall were carefully peeled off, the uterus was cut open along the mesangial line and laid flat on the bottom of the glass plate, then one side of the uterus was divided into left and right uterine muscle strips by using a surgical blade along the uterine contraction band running along smooth muscle, the two ends of the uterine muscle strip on one side were ligated with wires respectively, and then transferred into a nutrient tube which was aerated with oxygen and filled with 5 ml of Tyrode's solution and preheated to 37.2±0.5° C., with a lower end fixed and an upper end connected with a tension sensor. The materials stood for 20-30 minutes, liquid was changed 2-3 times, then the uterus was given a load of 1 g and kept for 30-60 minutes until the uterus had regular contraction waves, 40 mM KCL solution was provided for 10 minutes, and the function of the uterine muscle strips was evaluated. Then the muscle strips were relaxed and washed 2-3 times with Tyrode's solution, then let stand for 30 minutes; after standing, the uterine muscle strips were given a load of 1 g and kept for 30-60 minutes, and the administration and the observation were carried out after the uterine muscle strips contracted stably (i.e. regular contraction waveforms appear in a microcomputer display screen), the changes of relevant data such as contraction tension, amplitude and area under the contraction curve of the uterine smooth muscle strips were recorded, and the drug given was evaluated. During the experiment, the working temperature of the Tyrode's solution was kept at 37.2±0.5° C., and oxygen was continuously aerated into the nutrient tube with 1-2 bubbles per second. A cumulative dosing method was adopted, and 5 μl was administered each time, from low concentration to high concentration. A final drug concentration refers to the concentration of the drug dissolved in 5 ml Tyrode's solution in a […] tube.
# Fluacrypyrim (FAPM), the first strobilurin acaricide developed by BASF SE and Nippon Soda Co., Ltd., is a Qo site inhibitor of the mitochondrial cytochrome bc1 complex. […] The area under the smooth muscle contraction curve was calculated before drug intervention and 10 minutes after different doses of drug intervention respectively. A drug dose-effect curve was plotted by taking the area under the smooth muscle contraction curve caused by PGF2α as 100%, to calculate the median effective dose (IC50 value) of the drug for inhibiting uterine smooth muscle contraction.
# [5] = system: rat uterine smooth muscle; assay: contraction of rat uterine smooth muscle induced by potassium chloride; type: cell-based; details: potassium chloride (16 mM)
# Method: as §1
# [6] = system: Kunming female mice; assay: PGF2α-induced dysmenorrhea model in mice (diethylstilbestrol sensitization); type: in vivo, mouse; details: for Number of writhing times: within 30 min
# Method: A mouse dysmenorrhea model was established with reference to Yang L., Cao Z., Yu B. & Chai C. An in vivo mouse model of primary dysmenorrhea. Exp Anim. 2015, August 64, 295-303. Adult healthy Kunming female mice were randomly grouped, 10 mice in each group. Experimental mice were intragastrically given diethylstilbestrol 0.2 mg daily for 12 days. Different kinds and dosages of the inhibitors of the cytochrome bc1 complex were given intraperitoneally or intragastrically 30 min after the last administration. Indometacin (50 mg/kg) was injected intraperitoneally as positive control, PGF2α (1.3 mg/kg) or oxytocin (20 U/kg) was injected intraperitoneally 1 h later, and the writhe starting time (reaction latency) and the number of writhing times within 30 min were observed and recorded.
# [7] = system: rat uterine smooth muscle; assay: contraction of rat uterine smooth muscle induced by acetylcholine; type: cell-based; details: acetylcholine (0.25 μM)
# Method: as §1
# [8] = system: Kunming male mice; assay: acetic acid writhing test on mice; type: in vivo, mouse; details: for Writhe starting time / Number of writhing times: Table 3; for Number of writhing times: within 30 min
# [9] = system: mice; assay: xylene-induced mouse ear swelling test; type: in vivo
# Method: Fifty healthy adult male mice were randomly divided into 5 groups. […] […] One hour after administration, 20 μL of xylene was evenly applied to both sides of the right ear of mouse, and xylene was not applied to the left ear as self control. One hour later, the two ears were cut off, and two ear pieces were removed from the same parts of the two ears with a 6 mm hole punch. The two ear pieces were weighed on a precision balance, and the swelling degree (right ear piece weight-left ear piece weight) and swelling inhibition rate (right ear piece weight-left ear piece weight)/left ear piece weight×100%) were calculated.
# [10] = Table 7, 100 mg/Kg intraperitoneal
# [11] = Table 7, 200 mg/Kg intraperitoneal
smiles,measurement,setting,value
"CO/C=C(/C(=O)OC)c1ccccc1COc1cc(C(F)(F)F)nc(OC(C)C)n1 [FAPM, fluacrypyrim]",Maximum inhibition rate,[1]; in %,80%
same,IC50,"[1]; Mus musculus, RAW264.7, read-out: IC50, NO production",3800 nM
same,IC50,[2],1600 ± 80 nM
same,Paw swelling thickness 1 h,"[3]; 100 mg/Kg intraperitoneal once a day for 3 days, 1 h after carrageenan",5.72 ± 0.29 mm
same,Paw swelling thickness 2 h,"[3]; 100 mg/Kg intraperitoneal once a day for 3 days, 2 h after carrageenan",5.92 ± 0.19 mm
same,Paw swelling thickness 3 h,"[3]; 100 mg/Kg intraperitoneal once a day for 3 days, 3 h after carrageenan",6.24 ± 0.20 mm
same,Paw swelling (right foot weight-left foot weight),"[3]; 100 mg/Kg intraperitoneal once a day for 3 days, 3 hours after carrageenan",0.834 ± 0.32 g
same,carrageenan-induced rat paw swelling,[3]; 100 mg/kg intraperitoneal,significantly inhibited
same,inhibitory effect on PGF2α-induced contraction,[4]; amplitude and frequency,in a dose-dependent manner
same,IC50,[4],1690 ± 160 nM
same,IC50,"[4]; Rattus norvegicus, 10 min",1840 ± 80 nM
same,IC50,[5],1210 ± 70 nM
same,curative effect compared with indomethacin,[6]; 50 mg/Kg versus indomethacin 50 mg/Kg,equivalent to indomethacin at 50 mg/Kg
same,Writhe starting time,[6]; 200 mg/Kg intraperitoneal,significantly prolonged
same,effect on number of writhing times,"[6]; FAPM intraperitoneal, azoxystrobin intragastric, 50, 100 and 200 mg/Kg one hour before",in a dose-dependent manner
same,Writhe starting time,"[6]; Table 7, 50 mg/Kg intraperitoneal",1.24 ± 0.66 min
same,Number of writhing times,"[6]; Table 7, 50 mg/Kg intraperitoneal, 1 h before PGF2α (1.3 mg/kg)",18.3 ± 3.3
same,Writhe starting time,[6]; [10],1.43 ± 0.73 min
same,Number of writhing times,[6]; [10],12.5 ± 1.7
same,Writhe starting time,[6]; [11],2.15 ± 0.34 min
same,Number of writhing times,[6]; [11],5.8 ± 1.2
same,IC50,[7],1360 ± 40 nM
same,curative effect compared with indomethacin,[8]; 100 mg/Kg versus indomethacin 50 mg/Kg,equivalent to indomethacin at 50 mg/Kg
same,writhe starting time (reaction latency) compared with control group,"[8]; FAPM and trifloxystrobin intraperitoneal, azoxystrobin intragastric",significantly prolonged
same,Writhe starting time,[8]; 50 mg/Kg intraperitoneal,3.4 ± 1.1 min
same,Number of writhing times,"[8]; 50 mg/Kg intraperitoneal, 1 hour before acetic acid",25.3 ± 4.7
same,Writhe starting time,[8]; 100 mg/Kg intraperitoneal,4.6 ± 1.5 min
same,Number of writhing times,[8]; 100 mg/Kg intraperitoneal,17.6 ± 3.5
same,Writhe starting time,[8]; 200 mg/Kg intraperitoneal,11.9 ± 2.6 min
same,Number of writhing times,[8]; 200 mg/Kg intraperitoneal,2.4 ± 2.2
same,Ear swelling,"[9]; 100 mg/Kg intraperitoneal, 1 hour after xylene",7.83 ± 3.85 mg
same,xylene-induced mouse ear swelling,[9]; 100 mg/kg intraperitoneal,significantly inhibited
